Measurements as given in patent publication US20060045905A1, “Composition for repressing transformation growth factor beta” (Taiyokagaku Co., Ltd., priority 2004, published 2006).

System: mice
Assay type: in vivo
Details: oral administration of theanine by 5 g/kg
From the text: Theanine used in the invention has a high security. […] Furthermore, theanine is known as a principal component of deliciousness of tea and used as a food additive for use as gustatory. An amount of theanine to be added is not limited under the Food Sanitation Law. Moreover, differing from conventional medical substances, theanine has no adverse side effect. Consequently, the composition of the invention can be used as a safe and effective composition for repressing TGF-β.

CCNC(=O)CC[C@H](N)C(=O)O [theanine, L-theanine]
mortality in acute toxicity test: no mice died
